According to PubChem BioAssay (NCI):
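Exposure lasted 48 hours, with cells grown in 96-well plates and compounds tested at five concentrations. TGI denotes the concentration required for complete inhibition of growth.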

Experiments:
Assay in all cases: NCI anticancer screen, dose series, 48 h
HOP-62 NSCLC = test system: HOP-62 NSCLC
NCI-H23 lung = test system: NCI-H23 lung
HCT-15 colon = test system: HCT-15 colon
UO-31 renal = test system: UO-31 renal
A549 NSCLC = test system: A549 NSCLC
OVCAR-5 ovarian = test system: OVCAR-5 ovarian
XF 498 CNS = test system: XF 498 CNS
SNB-78 CNS = test system: SNB-78 CNS
OVCAR-8 ovarian = test system: OVCAR-8 ovarian
OVCAR-3 ovarian = test system: OVCAR-3 ovarian
SF-268 CNS = test system: SF-268 CNS
RXF 393 renal = test system: RXF 393 renal
SF-539 CNS = test system: SF-539 CNS
786-0 renal = test system: 786-0 renal
UACC-62 melanoma = test system: UACC-62 melanoma
SR leukemia = test system: SR leukemia
K-562 leukemia = test system: K-562 leukemia
HOP-92 NSCLC = test system: HOP-92 NSCLC
HL-60(TB) leukemia = test system: HL-60(TB) leukemia
EKVX NSCLC = test system: EKVX NSCLC
LXFL 529 NSCLC = test system: LXFL 529 NSCLC
DLD-1 colon = test system: DLD-1 colon
SK-MEL-28 melanoma = test system: SK-MEL-28 melanoma
UACC-257 melanoma = test system: UACC-257 melanoma
SNB-19 CNS = test system: SNB-19 CNS
SK-MEL-5 melanoma = test system: SK-MEL-5 melanoma
SF-295 CNS = test system: SF-295 CNS
CCRF-CEM leukemia = test system: CCRF-CEM leukemia
MALME-3M melanoma = test system: MALME-3M melanoma
DMS 273 small cell lung = test system: DMS 273 small cell lung
U251 CNS = test system: U251 CNS
SK-MEL-2 melanoma = test system: SK-MEL-2 melanoma
M14 melanoma = test system: M14 melanoma
KM12 colon = test system: KM12 colon
SK-OV-3 ovarian = test system: SK-OV-3 ovarian
MOLT-4 leukemia = test system: MOLT-4 leukemia
SW-620 colon = test system: SW-620 colon
HOP-18 NSCLC = test system: HOP-18 NSCLC
NCI-H460 lung = test system: NCI-H460 lung
A498 renal = test system: A498 renal
CAKI-1 renal = test system: CAKI-1 renal
NCI-H522 lung = test system: NCI-H522 lung
RPMI-8226 leukemia = test system: RPMI-8226 leukemia
IGROV1 ovarian = test system: IGROV1 ovarian
HT29 colon = test system: HT29 colon
DMS 114 small cell lung = test system: DMS 114 small cell lung
M19-MEL melanoma = test system: M19-MEL melanoma
HCT-116 colon = test system: HCT-116 colon
TK-10 renal = test system: TK-10 renal
KM20L2 colon = test system: KM20L2 colon
LOX IMVI melanoma = test system: LOX IMVI melanoma
ACHN renal = test system: ACHN renal
NCI-H226 lung = test system: NCI-H226 lung
COLO 205 colon = test system: COLO 205 colon
SNB-75 CNS = test system: SNB-75 CNS
OVCAR-4 ovarian = test system: OVCAR-4 ovarian
SN12C renal = test system: SN12C renal

Measured: TGI

CCCCCCc1cc2c(C)c(C)c(=O)oc2cc1OCCCOc1cc2oc(=O)c(C)c(C)c2cc1CCCCCC
> 100 µM: HOP-62 NSCLC | NCI-H23 lung | HCT-15 colon | UO-31 renal | A549 NSCLC | OVCAR-5 ovarian | XF 498 CNS | SNB-78 CNS | OVCAR-8 ovarian | OVCAR-3 ovarian | SF-268 CNS | RXF 393 renal | SF-539 CNS | 786-0 renal | UACC-62 melanoma | SR leukemia | K-562 leukemia | HOP-92 NSCLC | HL-60(TB) leukemia | EKVX NSCLC | LXFL 529 NSCLC | DLD-1 colon | SK-MEL-28 melanoma | UACC-257 melanoma | SNB-19 CNS | SK-MEL-5 melanoma | SF-295 CNS | CCRF-CEM leukemia | MALME-3M melanoma | DMS 273 small cell lung | U251 CNS | SK-MEL-2 melanoma | M14 melanoma | KM12 colon | SK-OV-3 ovarian | MOLT-4 leukemia | SW-620 colon | HOP-18 NSCLC | NCI-H460 lung | A498 renal | CAKI-1 renal | NCI-H522 lung | RPMI-8226 leukemia | IGROV1 ovarian | HT29 colon | DMS 114 small cell lung | M19-MEL melanoma | HCT-116 colon | TK-10 renal | KM20L2 colon | LOX IMVI melanoma

NC(CCC(=O)Nc1ccc(O)cc1)C(=O)O (stereo not drawn)
> 100 µM: HOP-62 NSCLC | HCT-15 colon | UO-31 renal | A549 NSCLC | OVCAR-5 ovarian | ACHN renal | XF 498 CNS | SNB-78 CNS | NCI-H226 lung | OVCAR-8 ovarian | OVCAR-3 ovarian | SF-268 CNS | RXF 393 renal | 786-0 renal | UACC-62 melanoma | SR leukemia | K-562 leukemia | HOP-92 NSCLC | HL-60(TB) leukemia | EKVX NSCLC | LXFL 529 NSCLC | DLD-1 colon | SK-MEL-28 melanoma | UACC-257 melanoma | SNB-19 CNS | SK-MEL-5 melanoma | COLO 205 colon | SNB-75 CNS | CCRF-CEM leukemia | MALME-3M melanoma | DMS 273 small cell lung | U251 CNS | SK-MEL-2 melanoma | OVCAR-4 ovarian | M14 melanoma | KM12 colon | SK-OV-3 ovarian | MOLT-4 leukemia | SW-620 colon | HOP-18 NSCLC | NCI-H460 lung | A498 renal | CAKI-1 renal | NCI-H522 lung | RPMI-8226 leukemia | HT29 colon | SN12C renal | DMS 114 small cell lung | HCT-116 colon | TK-10 renal | KM20L2 colon | LOX IMVI melanoma
